# According to patent US12661342B2, “Heteroaryl compounds and therapeutic uses thereof in conditions associated with the alteration of the activity of beta-glucocerebrosidase” (GT GAIN THERAPEUTICS SA, priority 2019, dated 2026):
# Target: T1, β-glucocerebrosidase (Homo sapiens, UniProt P04062, L483P)
# T1 construct: host or cells: human Gaucher disease patient fibroblasts GM08760A
# T1 sequence (P04062 40-536 L483P): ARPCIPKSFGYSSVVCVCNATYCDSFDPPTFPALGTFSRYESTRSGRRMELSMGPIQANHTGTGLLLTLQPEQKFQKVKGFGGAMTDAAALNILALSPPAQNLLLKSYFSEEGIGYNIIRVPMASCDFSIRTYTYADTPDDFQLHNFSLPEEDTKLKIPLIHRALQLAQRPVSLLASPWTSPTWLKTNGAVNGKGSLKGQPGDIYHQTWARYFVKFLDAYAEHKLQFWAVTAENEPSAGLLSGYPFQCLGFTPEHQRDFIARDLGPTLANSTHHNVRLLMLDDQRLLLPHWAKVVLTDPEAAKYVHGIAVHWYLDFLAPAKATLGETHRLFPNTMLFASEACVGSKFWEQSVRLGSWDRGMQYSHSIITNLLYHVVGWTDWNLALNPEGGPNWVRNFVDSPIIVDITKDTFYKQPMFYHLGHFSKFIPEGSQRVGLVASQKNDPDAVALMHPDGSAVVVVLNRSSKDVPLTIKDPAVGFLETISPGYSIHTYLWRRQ
# Experiment: Enhancement of β-glucocerebrosidase activity measured in Gaucher disease fibroblasts (4-MU-β-D-glucopyranoside substrate, intact cells)
# Assay type: cell-based
# Parameters: key: Increase in comparison with non-treated of >2.0 fold is shown as A; Increase in comparison with non-treated of >1.7-2.0 fold is shown as B; Increase in comparison with non-treated of 1.2-1.7 fold is shown as C; D means that no increase compared with non-treated cells was detected in this method
# Conditions: GBA fibroblasts bearing L444P (GM08760A, homozygous p.L444P); compound at concentrations between 6 and 50 μM; 4 days incubation
# In short: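 Patient fibroblasts homozygous for p.L444P (GM08760A), grown in DMEM/10% FBS and exposed to compound for 4 days. Intact cells then given 4-MU-β-D-glucopyranoside in 0.1 M acetate pH 4, 1 h, 37 °C; stopped at pH 10.7, 4-MU fluorescence ex 340/em 460. Value is fold increase over untreated cells; binned at 6–50 μM.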
row,Structure (SMILES),Range: increase in enzyme activity in comparison with non-treated cells (Enzyme activity assay for compounds of Examples 33-141)
1,"Nc1cc(Nc2ccccc2O)nc(C(=O)N2Cc3ccccc3C2)c1 [Example 104, (4-Amino-6-((2-hydroxyphenyl)amino)pyridin-2-yl)(isoindolin-2-yl)methanone]",C (Increase in comparison with non-treated of 1.2-1.7 fold is shown as C)
2,"Nc1cc(Nc2cccc(F)c2)nc(C(=O)N2CCN(c3ccccc3)CC2)c1 [Example 105, (4-Amino-6-((3-fluorophenyl)amino)pyridin-2-yl)(4-phenylpiperazin-1-yl)methanone]",B (Increase in comparison with non-treated of >1.7-2.0 fold is shown as B)
3,"COc1ccccc1Nc1cc(N)cc(C(=O)N(C)C2Cc3ccccc3C2)n1 [Example 106, 4-Amino-N-(2,3-dihydro-1H-inden-2-yl)-6-((2-methoxyphenyl)amino)-N-methyl-picolinamide]",C (Increase in comparison with non-treated of 1.2-1.7 fold is shown as C)
4,"CN(C(=O)c1cc(N)cc(Nc2cccc(F)c2)n1)C1Cc2ccccc2C1 [Example 107, 4-Amino-N-(2,3-dihydro-1H-inden-2-yl)-6-((3-fluorophenyl)amino)-N-methylpicolinamide]",C (Increase in comparison with non-treated of 1.2-1.7 fold is shown as C)
5,"Cc1c(F)cccc1Nc1cc(N)cc(C(=O)NC2Cc3ccccc3C2)n1 [Example 108, 4-Amino-N-(2,3-dihydro-1H-inden-2-yl)-6-((3-fluoro-2-methylphenyl)amino)picolinamide]",B (Increase in comparison with non-treated of >1.7-2.0 fold is shown as B)
6,"Nc1cc(Nc2cc(F)cc(F)c2)nc(C(=O)NC2Cc3ccccc3C2)c1 [Example 109, 4-Amino-6-((3,5-difluorophenyl)amino)-N-(2,3-dihydro-1H-inden-2-yl)picolinamide]",A (Increase in comparison with non-treated of >2.0 fold is shown as A)
7,"CN(C(=O)c1cc(N)cc(Nc2ccccc2O)n1)c1ccccc1 [Example 110, 4-Amino-6-((2-hydroxyphenyl)amino)-N-methyl-N-phenylpicolinamide]",C (Increase in comparison with non-treated of 1.2-1.7 fold is shown as C)
8,"Nc1cc(Nc2ccccc2F)nc(C(=O)Nc2ccc3c(c2)OCCO3)c1 [Example 111, 4-Amino-N-(2,3-dihydrobenzo[b][1,4]dioxin-6-yl)-6-((2-fluorophenyl)amino)picolinamide]",A (Increase in comparison with non-treated of >2.0 fold is shown as A)
9,"Nc1cc(Nc2cccc(O)c2)nc(C(=O)NC2Cc3ccccc3C2)c1 [Example 112, 4-Amino-N-(2,3-dihydro-1H-inden-2-yl)-6-((3-hydroxyphenyl)amino)picolinamide]",A (Increase in comparison with non-treated of >2.0 fold is shown as A)
10,"COc1ccccc1Nc1cc(N)cc(C(=O)N(C)c2ccccc2)n1 [Example 113, 6-(2-Methoxyphenylamino)-4-amino-N-methyl-N-phenylpyridine-2-carboxamide]",C (Increase in comparison with non-treated of 1.2-1.7 fold is shown as C)
11,"CN(C(=O)c1cc(N)cc(Nc2ccccc2F)n1)c1ccccc1 [Example 114, 4-Amino-6-((2-fluorophenyl)amino)-N-methyl-N-phenylpicolinamide]",D
12,"CN(C(=O)c1cc(N)cc(Nc2cccc(F)c2)n1)c1ccccc1 [Example 115, 6-(3-Fluorophenylamino)-4-amino-N-methyl-N-phenylpyridine-2-carboxamide]",C (Increase in comparison with non-treated of 1.2-1.7 fold is shown as C)
13,"Nc1cc(Nc2cccc(F)c2)nc(C(=O)N2Cc3ccccc3C2)c1 [Example 116, (6-(3-Fluorophenylamino)-4-aminopyridin-2-yl)(isoindolin-2-yl)methanone]",C (Increase in comparison with non-treated of 1.2-1.7 fold is shown as C)
14,"Nc1cc(Nc2cccc3c2OCO3)cc(C(=O)NC2Cc3ccccc3C2)n1 [Example 123, 6-Amino-4-(benzo[d][1,3]dioxol-4-ylamino)-N-(2,3-dihydro-1H-inden-2-yl)picolinamide]",C (Increase in comparison with non-treated of 1.2-1.7 fold is shown as C)
15,"Nc1cc(Nc2ccccc2O)nc(C(=O)N2CCN(c3ccccc3)CC2)n1 [Example 125, (4-Amino-6-((2-hydroxyphenyl)amino)pyrimidin-2-yl)(4-phenylpiperazin-1-yl)methanone]",C (Increase in comparison with non-treated of 1.2-1.7 fold is shown as C)
16,"Nc1nc(Nc2ccccc2O)nc(C(=O)NC2CCc3ccccc3C2)n1 (stereo not drawn) [Example 126, 4-Amino-6-((2-hydroxyphenyl)amino)-N-(1,2,3,4-tetrahydronaphthalen-2-yl)-1,3,5-triazine-2-carboxamide]",C (Increase in comparison with non-treated of 1.2-1.7 fold is shown as C)
17,"Nc1cc(Nc2ccccc2O)cc(C(=O)NC2CCc3ccccc3C2)n1 (stereo not drawn) [Example 127, 6-Amino-4-((2-hydroxyphenyl)amino)-N-(1,2,3,4-tetrahydronaphthalen-2-yl)picolinamide]",B (Increase in comparison with non-treated of >1.7-2.0 fold is shown as B)
18,"CN(C(=O)c1cc(Nc2ccccc2O)cc(N)n1)c1ccccc1 [Example 128, 6-Amino-4-((2-hydroxyphenyl)amino)-N-methyl-N-phenylpicolinamide]",C (Increase in comparison with non-treated of 1.2-1.7 fold is shown as C)
19,"Nc1cc(Nc2ccccc2O)nc(C(=O)NC2Cc3ccccc3C2)c1 [Example 129, 4-Amino-N-(2,3-dihydro-1H-inden-2-yl)-6-((2-hydroxyphenyl)amino)picolinamide]",C (Increase in comparison with non-treated of 1.2-1.7 fold is shown as C)
20,"Nc1nc(Nc2ccccc2O)cc(C(=O)N2CCN(c3ccccc3)CC2)n1 [Example 130, (2-Amino-6-((2-hydroxyphenyl)amino)pyrimidin-4-yl)(4-phenylpiperazin-1-yl)methanone]",C (Increase in comparison with non-treated of 1.2-1.7 fold is shown as C)
21,"CN(C(=O)c1cc(N)cc(Nc2ccccc2O)n1)C1Cc2ccccc2C1.Cl [Example 131, 4-Amino-N-(2,3-dihydro-1H-inden-2-yl)-6-((2-hydroxyphenyl)amino)-N-methyl-picolinamide hydrochloride]",C (Increase in comparison with non-treated of 1.2-1.7 fold is shown as C)
